Experimental data reported in publication PMC12405493, “Selective ubiquitination of drug-like small molecules by the ubiquitin ligase HUWE1” (Nature Communications, 2025).

Tests used:
HUWE1^HECT [1] = target: T1, HUWE1^HECT (Homo sapiens, UniProt Q7Z6Z7); assay: HUWE1^HECT multi-turnover ubiquitination reactions (fluorescent Ub tracer, SDS-PAGE); assay type: biochemical; conditions: E2 UBE2L3, varying concentrations
T1 construct: the isolated HECT domain of HUWE1 (HUWE1^HECT); made in house
T1 sequence (Q7Z6Z7 4038-4374 limits assumed): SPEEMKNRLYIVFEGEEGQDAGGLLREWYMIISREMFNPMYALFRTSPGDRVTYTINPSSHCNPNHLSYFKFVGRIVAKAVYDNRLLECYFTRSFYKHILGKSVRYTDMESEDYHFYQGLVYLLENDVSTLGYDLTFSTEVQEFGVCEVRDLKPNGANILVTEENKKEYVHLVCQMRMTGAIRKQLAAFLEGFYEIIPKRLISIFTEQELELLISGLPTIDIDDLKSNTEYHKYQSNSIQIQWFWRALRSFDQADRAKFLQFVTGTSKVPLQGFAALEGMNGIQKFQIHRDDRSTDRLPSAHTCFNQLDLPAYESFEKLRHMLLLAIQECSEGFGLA
Description: (§1) HUWE1^HECT multi-turnover ubiquitination reactions were performed for 30 minutes (unless stated otherwise) with 200 nM UBA1, 5 μM UBE2L3 or UBE2D3 (as specified), 1 μM HUWE1^HECT and 30 μM Ub in 25 mM HEPES (pH 7.5), 100 mM NaCl, 3 mM MgCl2, and 0.5 mM TCEP. HUWE1^FL multi-turnover ubiquitination reactions included 50 nM UBA1, 2.5 μM UBE2L3, 0.05 μM HUWE1^FL, 0.5 μM MCL1 (or 0.5 μM H2B or 1 μM FOXP3) and 20 μM Ub in 20 mM HEPES (pH 7.5), 100 mM NaCl, 3 mM MgCl2, and 0.5 mM TCEP. All multi-turnover reactions were started by the addition of 1 mM ATP, incubated at 30 °C, quenched with SDS-loading dye. If not stated otherwise, HUWE1^FLautoubiquitination reactions were incubated for 20 minutes. Substrate ubiquitination reactions with MCL1 or H2B were incubated for 10 and 20 min, respectively; those with FOXP3 for 30 min. Those reactions that were monitored by fluorescence contained a fluorescent Ub tracer (IRDye 800CW maleimide; LI-COR)[55] and were monitored using an Odyssey CLx scanner (LI-COR), followed by Coomassie staining. In the fluorescence images, only those marker bands are labeled (in kDa) that are visible by fluorescence; all marker bands are labeled in the Coomassie-stained images. Statistical analyses were performed with Prism 9 v.9.3.1 (GraphPad).

other HECT domains = test system: other HECT domains; set-up: method as in PMID 25253726; conditions: in vitro; cited from earlier work
[2] = target: T2, vinylthioether-linked HUWE1^HECT-Ub complex (Homo sapiens, UniProt Q7Z6Z7); assay: Differential scanning fluorimetry (DSF) with HUWE1^HECT~Ub proxy; assay type: binding; conditions: 10 μM protein
T2 construct: The preparation of the vinylthioether-linked HUWE1^HECT-Ub complex was also previously described; made in house; host or cells: bacteria (components)
Description: DSF was performed in 25 mM HEPES (pH 7.5), 100 mM NaCl, 1 mM TCEP and 0.4% (v/v) DMSO, using a CFX96 Touch Real-Time PCR Detection System (BioRad). 10 μM HUWE1^HECT and HUWE1^HECT-Ub, respectively, at a sample volume of 25 μL were denatured by a linear 25–95 °C gradient over 120 min in a presence of 10 x SYPRO Orange (Invitrogen). Tm-values were determined as the first derivative of the fluorescence curves, using CFX Maestro™ v.1.1 (Bio-Rad). Melting curves were plotted as normalized -d(fluorescence)/dt with Prism v.9.3.1 (GraphPad).

colorectal cancer cells = test system: colorectal cancer cells; set-up: method as in PMID 25253726; conditions: cited from earlier work
HUWE1^HECT [3] = target: T3, HUWE1^HECT (Homo sapiens, UniProt Q7Z6Z7); assay: Single-turnover assay, Ub thioester transfer from E2 to HUWE1^HECT; assay type: biochemical; conditions: HECT^Δ4 variant
T3 construct: HUWE1^HECTΔ4 (residues 3993–4370); made in house
T3 sequence (Q7Z6Z7 3993-4370): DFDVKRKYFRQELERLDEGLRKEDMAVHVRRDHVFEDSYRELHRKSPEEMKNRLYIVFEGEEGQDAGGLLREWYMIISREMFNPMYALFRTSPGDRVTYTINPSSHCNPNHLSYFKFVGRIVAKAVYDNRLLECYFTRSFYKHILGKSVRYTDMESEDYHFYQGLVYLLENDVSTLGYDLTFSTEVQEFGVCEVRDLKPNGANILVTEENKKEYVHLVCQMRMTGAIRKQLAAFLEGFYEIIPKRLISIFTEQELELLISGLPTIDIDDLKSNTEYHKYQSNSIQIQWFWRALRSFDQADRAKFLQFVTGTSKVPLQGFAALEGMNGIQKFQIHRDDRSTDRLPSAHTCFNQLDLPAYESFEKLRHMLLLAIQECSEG
Description: (§2) E3-free multi-turnover ubiquitination reactions to monitor E1 and E2 activities contained 1 μM UBA1, 5 μM UBE2L3, 100 μM Ub, 2 mM ATP and 10 mM MgCl2 in 25 mM HEPES (pH 7.4), and 0.2 mM TCEP. Reactions were incubated at 30 °C for 10 min (or otherwise, as specified) and quenched with 50 mM EDTA, followed by the addition of SDS-loading dye. Single-turnover E2~Ub discharge assays were performed similarly to previous studies. In short, 1 μM UBA1, 5 μM UBE2L3, and 100 μM Ub were pre-incubated with 2 mM ATP and 10 mM MgCl2 in 25 mM HEPES (pH 7.4) at 30 °C for 30 min, diluted 4-fold, and quenched with 50 mM EDTA. Thereafter, 1.2 μM of the UBE2L3~Ub product was incubated with 5 μM HUWE1^HECT at 30 °C for 1 min.

UBA1 (E1) / UBE2L3 (E2) = target: T4, UBA1 (E1) / UBE2L3 (E2) (Homo sapiens, UniProt P22314+P68036); assay: E1-driven Ub transfer to UBE2L3 (E3-free reaction); assay type: biochemical; conditions: Supplementary Fig. 1f, g
T4 construct: made in house
Description: as §2

[4] = target: T5, HUWE1^FL (substrate MCL1) (Homo sapiens, UniProt Q7Z6Z7); assay: HUWE1^FL-driven MCL1 ubiquitination reactions; assay type: biochemical; conditions: varying concentrations
T5 construct: made in house; host or cells: HEK293T (transient transfection, anti-Flag purification, SEC)
T5 sequence (Q7Z6Z7 whole entry): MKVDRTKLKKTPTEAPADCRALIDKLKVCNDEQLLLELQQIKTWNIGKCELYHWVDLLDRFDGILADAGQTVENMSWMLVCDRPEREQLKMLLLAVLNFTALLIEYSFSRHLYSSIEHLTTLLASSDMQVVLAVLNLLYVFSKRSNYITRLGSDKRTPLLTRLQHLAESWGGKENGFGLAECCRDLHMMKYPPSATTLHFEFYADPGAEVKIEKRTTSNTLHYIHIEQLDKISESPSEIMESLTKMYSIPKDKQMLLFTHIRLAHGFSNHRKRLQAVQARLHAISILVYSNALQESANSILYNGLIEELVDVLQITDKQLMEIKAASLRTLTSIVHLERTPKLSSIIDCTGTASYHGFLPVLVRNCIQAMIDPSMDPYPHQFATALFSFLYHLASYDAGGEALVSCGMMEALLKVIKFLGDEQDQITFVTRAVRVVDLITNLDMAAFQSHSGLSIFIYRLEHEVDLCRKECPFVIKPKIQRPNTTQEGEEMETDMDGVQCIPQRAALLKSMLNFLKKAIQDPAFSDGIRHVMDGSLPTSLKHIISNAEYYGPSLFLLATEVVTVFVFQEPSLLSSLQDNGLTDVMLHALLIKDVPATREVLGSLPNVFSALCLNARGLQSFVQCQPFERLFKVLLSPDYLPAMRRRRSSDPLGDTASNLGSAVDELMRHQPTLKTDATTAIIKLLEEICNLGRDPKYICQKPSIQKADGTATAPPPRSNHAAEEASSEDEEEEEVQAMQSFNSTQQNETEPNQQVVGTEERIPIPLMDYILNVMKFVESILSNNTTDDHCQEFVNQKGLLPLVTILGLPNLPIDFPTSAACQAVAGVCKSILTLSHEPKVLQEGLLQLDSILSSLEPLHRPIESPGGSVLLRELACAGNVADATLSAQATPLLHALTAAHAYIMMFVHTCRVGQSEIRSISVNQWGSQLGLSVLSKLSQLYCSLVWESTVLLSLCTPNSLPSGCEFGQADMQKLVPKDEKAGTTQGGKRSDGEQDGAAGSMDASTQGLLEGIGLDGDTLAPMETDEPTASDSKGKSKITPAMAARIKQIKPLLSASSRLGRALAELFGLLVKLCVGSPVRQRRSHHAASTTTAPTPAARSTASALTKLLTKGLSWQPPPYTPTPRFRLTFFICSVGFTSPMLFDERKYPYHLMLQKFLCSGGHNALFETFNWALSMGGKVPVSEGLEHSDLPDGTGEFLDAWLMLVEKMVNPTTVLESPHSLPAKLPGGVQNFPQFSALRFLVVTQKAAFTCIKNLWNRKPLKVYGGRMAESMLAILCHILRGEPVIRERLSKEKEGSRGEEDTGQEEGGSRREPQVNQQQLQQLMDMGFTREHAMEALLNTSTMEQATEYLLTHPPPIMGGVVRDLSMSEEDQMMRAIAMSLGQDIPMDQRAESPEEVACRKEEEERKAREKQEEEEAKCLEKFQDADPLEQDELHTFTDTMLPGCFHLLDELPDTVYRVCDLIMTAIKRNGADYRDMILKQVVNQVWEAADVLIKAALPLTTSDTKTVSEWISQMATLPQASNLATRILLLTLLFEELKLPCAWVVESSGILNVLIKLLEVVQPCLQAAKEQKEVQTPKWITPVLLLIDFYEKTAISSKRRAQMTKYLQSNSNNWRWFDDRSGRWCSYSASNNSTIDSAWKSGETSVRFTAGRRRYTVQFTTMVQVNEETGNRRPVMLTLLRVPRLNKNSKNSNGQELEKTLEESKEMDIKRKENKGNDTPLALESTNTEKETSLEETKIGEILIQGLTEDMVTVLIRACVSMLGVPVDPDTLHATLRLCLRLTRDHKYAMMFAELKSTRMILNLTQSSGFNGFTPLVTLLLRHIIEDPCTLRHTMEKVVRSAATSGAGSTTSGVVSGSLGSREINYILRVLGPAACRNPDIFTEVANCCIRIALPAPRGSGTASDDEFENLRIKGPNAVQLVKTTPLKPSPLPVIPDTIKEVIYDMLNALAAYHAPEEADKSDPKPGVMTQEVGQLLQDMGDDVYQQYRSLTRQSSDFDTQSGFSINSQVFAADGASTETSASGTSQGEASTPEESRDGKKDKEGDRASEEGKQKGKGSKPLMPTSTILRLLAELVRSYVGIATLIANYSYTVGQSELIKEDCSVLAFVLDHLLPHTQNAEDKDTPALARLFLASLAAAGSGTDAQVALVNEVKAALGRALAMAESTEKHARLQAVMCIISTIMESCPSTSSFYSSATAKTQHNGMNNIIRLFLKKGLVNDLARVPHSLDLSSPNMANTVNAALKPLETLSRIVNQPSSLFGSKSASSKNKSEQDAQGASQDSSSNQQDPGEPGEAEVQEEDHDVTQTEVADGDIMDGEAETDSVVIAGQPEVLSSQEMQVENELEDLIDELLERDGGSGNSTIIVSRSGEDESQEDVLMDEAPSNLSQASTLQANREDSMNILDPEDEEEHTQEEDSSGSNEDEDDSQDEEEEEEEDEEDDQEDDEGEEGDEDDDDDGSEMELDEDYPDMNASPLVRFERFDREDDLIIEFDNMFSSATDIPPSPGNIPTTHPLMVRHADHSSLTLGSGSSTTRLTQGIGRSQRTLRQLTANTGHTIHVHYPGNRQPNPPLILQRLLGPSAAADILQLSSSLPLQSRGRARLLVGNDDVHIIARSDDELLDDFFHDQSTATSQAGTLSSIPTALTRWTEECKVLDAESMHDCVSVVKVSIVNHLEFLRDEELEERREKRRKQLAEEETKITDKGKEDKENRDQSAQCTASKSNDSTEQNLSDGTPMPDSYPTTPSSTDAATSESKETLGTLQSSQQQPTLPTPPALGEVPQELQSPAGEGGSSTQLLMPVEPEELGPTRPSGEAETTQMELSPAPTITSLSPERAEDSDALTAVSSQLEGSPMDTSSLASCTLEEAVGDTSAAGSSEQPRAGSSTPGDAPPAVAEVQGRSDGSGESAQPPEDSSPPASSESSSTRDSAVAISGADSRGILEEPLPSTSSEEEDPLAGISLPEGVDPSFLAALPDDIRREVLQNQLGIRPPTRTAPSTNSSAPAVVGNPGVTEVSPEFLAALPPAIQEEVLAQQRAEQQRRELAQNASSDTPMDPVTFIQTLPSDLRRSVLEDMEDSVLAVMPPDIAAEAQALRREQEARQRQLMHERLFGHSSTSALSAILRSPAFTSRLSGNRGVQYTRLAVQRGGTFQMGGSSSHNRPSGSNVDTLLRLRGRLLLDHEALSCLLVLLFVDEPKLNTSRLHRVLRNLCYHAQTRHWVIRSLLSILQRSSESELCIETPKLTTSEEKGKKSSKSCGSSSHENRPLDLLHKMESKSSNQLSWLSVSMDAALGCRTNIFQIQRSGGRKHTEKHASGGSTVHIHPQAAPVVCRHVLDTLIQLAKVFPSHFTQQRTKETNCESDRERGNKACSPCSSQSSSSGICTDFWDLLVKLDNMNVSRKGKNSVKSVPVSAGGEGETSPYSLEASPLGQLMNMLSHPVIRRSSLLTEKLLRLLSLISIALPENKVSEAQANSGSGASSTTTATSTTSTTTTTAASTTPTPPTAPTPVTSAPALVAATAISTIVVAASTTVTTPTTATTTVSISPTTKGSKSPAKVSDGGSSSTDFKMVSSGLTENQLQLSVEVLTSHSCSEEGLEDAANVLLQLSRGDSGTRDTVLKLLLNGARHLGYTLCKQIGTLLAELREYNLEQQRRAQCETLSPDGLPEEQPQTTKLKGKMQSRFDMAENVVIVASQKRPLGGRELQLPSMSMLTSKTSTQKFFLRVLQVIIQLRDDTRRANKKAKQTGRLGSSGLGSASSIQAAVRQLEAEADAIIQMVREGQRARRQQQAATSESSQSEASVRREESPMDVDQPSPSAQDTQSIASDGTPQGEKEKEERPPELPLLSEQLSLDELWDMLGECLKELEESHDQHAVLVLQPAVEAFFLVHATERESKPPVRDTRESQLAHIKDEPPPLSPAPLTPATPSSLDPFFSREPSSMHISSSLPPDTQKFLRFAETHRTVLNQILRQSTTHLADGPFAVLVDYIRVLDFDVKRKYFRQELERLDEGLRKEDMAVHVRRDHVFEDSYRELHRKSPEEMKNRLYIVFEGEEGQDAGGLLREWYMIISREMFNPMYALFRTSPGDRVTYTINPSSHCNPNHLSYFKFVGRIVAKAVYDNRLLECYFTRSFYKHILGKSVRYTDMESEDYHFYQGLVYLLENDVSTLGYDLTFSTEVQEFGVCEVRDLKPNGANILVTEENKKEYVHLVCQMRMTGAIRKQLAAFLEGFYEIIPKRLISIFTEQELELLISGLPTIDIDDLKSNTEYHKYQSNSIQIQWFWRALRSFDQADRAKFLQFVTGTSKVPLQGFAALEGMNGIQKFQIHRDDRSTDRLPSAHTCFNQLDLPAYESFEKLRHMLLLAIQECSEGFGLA
Description: as §1

Row | Compound | Inhibition of HUWE1^HECT-driven ubiquitination (HUWE1^HECT [1]) | IC50 (other HECT domains) [µM] | Interaction with HUWE1^HECT-Ub by DSF [2] | Cytotoxic effects (colorectal cancer cells) | Ub transfer from the E2 to HUWE1^HECT (HUWE1^HECT [3]) | Ub transfer from the E1 to the E2 (UBA1 (E1) / UBE2L3 (E2)) | Inhibition of HUWE1^FL-driven MCL1 ubiquitination [4]
1 | NCc1cccc(CNc2ncnc3c(N4CCN(Cc5ccccc5)CC4)ncnc23)c1 [BI8626] | inhibit ubiquitination dose-dependently in the low-micromolar concentration range | > 50 | no interactions between HUWE1^HECT-Ub and the inhibitors could be detected | selective cytotoxic effects | do not obstruct Ub transfer from the E2 to HUWE1^HECT | nor do they perturb the preceding Ub transfer from the E1 to the E2 | inhibit the protein ubiquitination activity of the ligase in a dose-dependent manner
2 | Cc1c(C(=O)Nc2ccc(CN)cc2)ncnc1N1CCC(C#N)(c2ccccc2)CC1 [BI8622] | inhibit ubiquitination dose-dependently in the low-micromolar concentration range | > 50 | no interactions between HUWE1^HECT-Ub and the inhibitors could be detected | selective cytotoxic effects | do not obstruct Ub transfer from the E2 to HUWE1^HECT | nor do they perturb the preceding Ub transfer from the E1 to the E2 | inhibit the protein ubiquitination activity of the ligase in a dose-dependent manner
